Earlier results as cited in patent US20230338288A1, “ASYMMETRIC CHARGED VESICLES AND METHODS OF PREPARING AND USE THEREOF” (The Research Foundation for the State University of New York, priority 2020, published 2023).

Settings: compared with Doxil (liposome-encapsulated Dox)

For COc1cccc2c1C(=O)c1c(O)c3c(c(O)c1C2=O)C[C@@](O)(C(=O)CO)C[C@@H]3O[C@H]1C[C@H](N)[C@H](O)[C@H](C)O1 [Dox, Doxorubicin], which “dose that can be delivered without exhibiting cardiotoxicity, fold less than with Doxil” value is on record?
Its value is 10-50 fold.
